For this assay, the system named is primary human mesenchymal stem cells (hMSCs). The assay is described as follows: Induction of chondrogenesis in human mesenchymal stem cells (nodule staining with Rhodamine B / Nile Red). The note with it: for Emax: TGF-β3 (10 ng/mL) as positive control, read-out: Max. Activity as % TGF-β3 activity; for EC50: concentration required to induce 50% levels of chondrogenesis vs TGF-β3, read-out: Conc (nM) of 50% TGF-β3 activity. The class given is cell-based. The procedure: Representative compounds were screened using primary human mesenchymal stem cells (hMSCs) to determine their ability to induce chondrogenesis (process by which cartilage is developed).
Human Mesenchymal Stem Cell Culture: Primary human mesenchymal stem cells (hMSCs) were purchased from Lonza (Walkersville, Md.) and expanded in Mesenchymal Stem Cell Growth Media (Lonza). Cells between passage 3 and 6 were used for the experiments.
Compound Screening: Each compound was dissolved in DMSO as a 10 mM stock and used to prepare compound source plates. For the 96 well assay, serial dilution (1:3, 6-point dose-response curves from 2700 nM to 10 nM) and compound transfer was performed using the ECHO 550 (Labcyte, Sunnyvale, Calif.) into 96-well clear bottom assay plates (Greiner Bio-One) with appropriate DMSO backfill for a final DMSO concentration of 0.03%. hMSCs were plated at 20,000 cells/well in 250 μL/well Incomplete Chondrogenic Induction Medium (Lonza; DMEM, dexamethasone, ascorbate, insulin-transferrin-selenium [ITS supplement], gentamycin-amphotericin [GA-1000], sodium pyruvate, proline and L-glutamine). TGF-β3 (10 ng/mL) was used as a positive control for differentiation while negative control wells were treated with 75 nL DMSO for normalization and calculating EC50 values. For the 384 well assay, serial dilution (1:3, 8-point dose-response curves from 5000 nM to 2.2 nM) and compound transfer was performed using the ECHO 550 (Labcyte, Sunnyvale, Calif.) into 384-well clear bottom assay plates (Greiner Bio-One) with appropriate DMSO backfill for a final DMSO concentration of 0.03%. hMSCs were plated at 8,000 cells/well in 80 μL/well Incomplete Chondrogenic Induction Medium (Lonza; DMEM, dexamethasone, ascorbate, insulin-transferrin-selenium [ITS supplement], gentamycin-amphotericin [GA-1000], sodium pyruvate, proline and L-glutamine). TGF-β3 (10 ng/mL) was used as a positive control for differentiation while negative control wells were treated with 25 nL DMSO for normalization and calculating EC50 values. Cells were incubated at 37° C. and 5% CO2 for 6 days. To image chondrogenic nodules, the cells were fixed using 4% formaldehyde (Electron Microscopy Sciences), and stained with 2 μg/mL Rhodamine B (Sigma-Aldrich) and 20 μM Nile Red (Sigma-Aldrich) [Johnson K., et. al, A Stem Cell-Based Approach to Cartilage Repair, Science, (2012), 336(6082), 717-721]. The nodules imaged (25 images per well for 96 well plates and 9 images per well for 384 well plates at 10× magnification) by excitation at 531 nm and emission at 625 nm and quantified using the CellInsight CX5 (Thermo Scientific). Area of nodules in each well was normalized to the average of 3 DMSO treated wells on the same plate using Excel (Microsoft Inc.). The normalized averages (fold change over DMSO) of 2 or 3 replicate wells for each compound concentration were calculated. Due to solubility limitations of some of the compounds, curve fitting was incomplete leading to inaccurate EC50 determinations.
Using TGF-β3 as a positive control, the concentration of representative compounds required to induce 50% levels of chondrogenesis is reported. In addition, the maximum activity of each compound and the respective dose that each compound reached maximum chondrogenesis activity is reported.

Molecules are shown by their SMILES.

Consider `COc1cccc(-c2cccc3[nH]c(-c4n[nH]c5ccc(-c6cncc(NC(=O)Cc7ccccc7)c6)nc45)nc23)c1` [Compound 1000, N-(5-(3-(4-(3-Methoxyphenyl)-1H-benzo[d]imidazol-2-yl)-1H-pyrazolo[4,3-b]pyridin-5-yl)pyridin-3-yl)-2-phenylacetamide], for which the Emax was determined as 50% and the EC50 stood at 900 nM.
Regarding `CC(C)CC(=O)Nc1cncc(-c2ccc3[nH]nc(-c4nc5c(-c6ccc(Cl)s6)cccc5[nH]4)c3n2)c1` [Compound 1037, N-(5-(3-(4-(5-Chlorothiophen-2-yl)-1H-benzo[d]imidazol-2-yl)-1H-pyrazolo [4,3-b]pyridin-5-yl)pyridin-3-yl)-3-methylbutanamide], the Emax was found to be 56% and the EC50 was found to be 10 nM.
Take `CC(C)(C)C(=O)Nc1cncc(-c2ccc3[nH]nc(-c4nc5c(-c6ccc(Cl)s6)cccc5[nH]4)c3n2)c1` [Compound 1043, N-(5-(3-(4-(5-chlorothiophen-2-yl)-1H-benzo[d]imidazol-2-yl)-1H-pyrazolo[4,3-b]pyridin-5-yl)pyridin-3-yl)pivalamide]: the Emax amounted to 65% and the EC50 is 10 nM.
With `Clc1ccc(-c2cccc3[nH]c(-c4n[nH]c5ccc(-c6cncc(CN7CCCC7)c6)nc45)nc23)s1` [Compound 1049, 3-(4-(5-Chlorothiophen-2-yl)-1H-benzo[d]imidazol-2-yl)-5-(5-(pyrrolidin-1-ylmethyl)pyridin-3-yl)-1H-pyrazolo[4,3-b]pyridine], the Emax worked out at 408%.
Turning to `O=C(Nc1cncc(-c2ccc3[nH]nc(-c4nc5c(-c6ccc(Cl)s6)cccc5[nH]4)c3n2)c1)C1CCC1` [Compound 1056, N-(5-(3-(4-(5-Chlorothiophen-2-yl)-1H-benzo[d]imidazol-2-yl)-1H-pyrazolo [4,3-b]pyridin-5-yl)pyridin-3-yl)cyclobutanecarboxamide], the Emax turned out to be 100% and the EC50 is 10 nM.
Consider `O=C(Nc1cncc(-c2ccc3[nH]nc(-c4nc5c(-c6ccccc6F)cccc5[nH]4)c3n2)c1)C(F)(F)F` [Compound 1126, 2,2,2-Trifluoro-N-(5-(3-(4-(2-fluorophenyl)-1H-benzo[d]imidazol-2-yl)-1H-pyrazolo[4,3-b]pyridin-5-yl)pyridin-3-yl)acetamide], for which the Emax came to 40%.
On to `CN1CCN(c2cccc3[nH]c(-c4n[nH]c5ccc(-c6cncc(NC(=O)C(F)(F)F)c6)nc45)nc23)CC1` [Compound 1127, 2,2,2-Trifluoro-N-(5-(3-(4-(4-methylpiperazin-1-yl)-1H-benzo[d]imidazol-2-yl)-1H-pyrazolo[4,3-b]pyridin-5-yl)pyridin-3-yl)acetamide], for which the Emax was 51% and the EC50 was 30 nM.

These data come from US10392383B2, “3-(1H-benzo[d]imidazol-2-yl)-1H-pyrazolo[4,3-b]pyridines and therapeutic uses thereof” (Samumed, LLC, priority 2015, dated 2019).
